From patent US7429482B2, “Screening tools for discovery of novel anabolic agents” (United States of America as represented by the Department …, priority 2005, dated 2008)

Assays:
[1] = tested on: myostatin; test: Chronic denervation: myostatin mRNA in gastrocnemius (qPCR); type: in vivo, rat
Experimental: (§1) Male Wistar rats weighing 200-250 gm (Taconic Farms, Germantown, N.Y.) were provided food and water ad libitum and were housed in a temperature and humidity controlled environment providing a 12:12 hour day-night cycle. For surgical procedures, animals were anesthetized with ketamine/xylazine. The left sciatic nerve was exposed by blunt dissection, and a 1 to 2 mm piece of this nerve was excised just below the level of the femoral head. A sham surgery was performed on the right hind limb in which the sciatic nerve was exposed but was not transected. Twenty eight days later, animals were anesthetized, and Alzet pumps were implanted subcutaneously on the back. […] Testosterone levels after replacement were approximately 15 nM, a high-normal range for rats of this age. […]
(§2) Total RNA was extracted from skeletal muscle (20 mg) by homogenization in guanidine thiocyanate using a Polytron followed by extraction of total RNA with phenol-chloroform as described by (Chomczynski and Sacchi, Anal Biochem 162: 156-159, 1987). […] Total RNA was eluted and quantified by absorbance at 260 nm. […] Levels of gene expression in the denervated muscle were expressed as fold induction relative to muscle from the sham-denervated leg of animals administered vehicle. […] Fold-induction was determined using the 2^−ΔΔCt method, using expression of 18S RNA as the normalization control. […]

[2] = tested on: IGF-1; test: Chronic denervation: IGF-1 mRNA in gastrocnemius (qPCR); type: in vivo, rat
Experimental: as §1, §2

[3] = tested on: IGFBP-2; test: Chronic denervation: IGFBP-2 mRNA in gastrocnemius (qPCR); type: in vivo, rat
Experimental: as §1, §2

[4] = Chronic denervation: gastrocnemius muscle weights; type: in vivo, rat
Experimental: Male Wistar rats weighing 200-250 gm (Taconic Farms, Germantown, N.Y.) were provided food and water ad libitum and were housed in a temperature and humidity controlled environment providing a 12:12 hour day-night cycle. For surgical procedures, animals were anesthetized with ketamine/xylazine. The left sciatic nerve was exposed by blunt dissection, and a 1 to 2 mm piece of this nerve was excised just below the level of the femoral head. A sham surgery was performed on the right hind limb in which the sciatic nerve was exposed but was not transected. Twenty eight days later, animals were anesthetized, and Alzet pumps were implanted subcutaneously on the back. […] Testosterone levels after replacement were approximately 15 nM, a high-normal range for rats of this age. Animals were sacrificed 3, 7 or 28 days after implantation of the miniosmotic pumps by inhalation of carbon dioxide. Gastrocnemius muscles were excised and weighed, then flash frozen on dry ice and stored at −80° C.

[5] = tested on: IGFBP-3; test: Chronic denervation: IGFBP-3 mRNA in gastrocnemius (qPCR); type: in vivo, rat
Experimental: as §1, §2

[6] = tested on: human MAFbx promoter; test: Human MAFbx promoter luciferase reporter assay in C2C12 / C2C12.AR cells; type: cell-based
Source text: (§3) The reporter genes pMAF3.1, pMAF2.4, pMAF948, pMAF400, and pMAF400-241 express firefly luciferase under the control of promoter regions of the human MAFbx gene and are described in Example 1. The rARC562G vector, encoding rat AR with a C562->G mutation in the first zinc binding module that disrupts binding of AR to DNA was described by Palvimo et al. (Mol Endocrinol 7: 1399-1407, 1993) pAR.4RKM (expressing AR with 4 R/K->M mutations in the nuclear localization sequence that is unable to enter the nucleus) and pAR.ABC (lacking the ligand binding domain) were described by Zhou et al. (J Biol Chem 269: 13115-13123, 1994). The pBabe.puro retroviral backbone described by Morgenstern and Land (Nucleic Acids Res 18: 3587-3596, 1990) was modified by introduction of a Not1 site. The ARE reporter gene expressing firefly luciferase under control of the MMTV hormone response element, and pSP72hAR-1, containing an insert of the full-length cDNA clone of the human AR, were provided by Dr. Diane Robins (University of Michigan). pRL-CMV expressing Renilla luciferase was from Promega (Madison, Wis.).
C2C12 cells (American Type Culture Collection, Manassas, Va.) were maintained in Dulbeco's modified Eagle's Medium (DMEM) containing 10% fetal bovine serum (FBS) and penicillin (100 U/ml)/streptomycin (100 μg/ml) (growth medium). Cells were incubated at 37° C. in humidified air containing 10% CO2. 293T cells (American Type Culture Collection) were maintained in growth medium as above. Transfection was achieved using Lipofectamine-Plus (Invitrogen, Carlsbad, Calif.) using 200 ng total DNA per well.
Cells were seeded into wells of 24-well plates (5×10^5 cells/well) then maintained overnight in DMEM with 10% CDS-FBS. Cells were co-transfected with the various reporter genes and pRL-CMV. Cells were incubated in the transfection mixture overnight, then covered with DMEM supplemented with 10% charcoal-dextran-stripped FBS (CDS-FBS) and either ethanol (EtOH) or hormones dissolved in EtOH. Cells were maintained for an additional 24 hours, at which time both firefly and renilla luciferase activity were determined using the Dual Luciferase Assay (Promega, Madison, Wis.) and a Berthold 96-well plate luminometer. Firefly luciferase activities were normalized relative to renilla luciferase. Ethanol concentrations were less than 0.1%.

[7] = tested on: ARE reporter gene (MMTV hormone response element); test: ARE (MMTV hormone response element) luciferase reporter in C2C12 and C2C12.AR cells; type: cell-based
Source text: as §3, with “The ARE reporter gene expressing firefly luciferase under control of the MMTV hormone response element, and pSP72hAR-1, containing an insert of the full-length cDNA clone of the human AR, were provided by Dr. Diane Robins (University of Michigan). pRL-CMV expressing Renilla luciferase was from Promega (Madison, Wis.).” left out
Cells were seeded into wells of 24-well plates (5×10^5 cells/well) then maintained overnight in DMEM with 10% CDS-FBS. […] Cells were maintained for an additional 24 hours, at which time both firefly and renilla luciferase activity were determined using the Dual Luciferase Assay (Promega, Madison, Wis.) and a Berthold 96-well plate luminometer. […]
To determine whether C2C12 cells expressed AR, total RNA from these cells was extracted and analyzed by real-time PCR and compared to levels of AR mRNA in gastrocnemius muscle from male mice. […]

With `C[C@]12CC[C@H]3[C@@H](CCC4=CC(=O)CC[C@@H]43)[C@@H]1CC[C@@H]2O` [nandrolone] the myostatin expression ([1]; denervated muscle, 7 and 28 days administration) was “modest, though significant reduction”, the myostatin expression ([1]; sham-denervated muscle, not significant) was “tended to be decreased” and the IGF-1 expression ([2]; denervated muscle) was “did not alter”. The IGF-1 expression ([2]; sham-denervated muscle) was “did not alter”, the IGFBP-2 expression ([3]; denervated muscle, any time tested) was “did not significantly alter” and the IGFBP-2 expression ([3]; sham-denervated muscle) was “did not appreciably alter”. The “weights of denervated muscles versus vehicle” value ([4]; after 3 days of nandrolone (31 days)) was “similar”, the “increase in mass of muscles in the normal limb” value ([4]; nandrolone 0.75 mg/kg/wk plus testosterone from day 28, not significant) was 2-5% and the IGF-BP-3 expression ([5]; denervated muscle, 56-days) was “significantly reduced”. The IGFBP-3 expression ([5]; sham-denervated muscle) was “did not appreciably alter”.

In the case of `C[C@]12CC[C@H]3[C@@H](CCC4=CC(=O)CC[C@@]43C)[C@@H]1CC[C@@H]2O` [testosterone], the “repression of pMAF3.1 reporter activity” value ([6]; C2C12.AR cells, 5 nM testosterone) is reported as “about 40%”, the “suppression of MAFbx reporter with 3′ deletion of 208 bases encoding the 5′ UTR” value ([6]; C2C12.AR cells, 500 nM) is reported as “abolished suppression” and the “repression of pMAF3.1 reporter activity” value ([6]; C2C12.AR cells, 500 nM testosterone) is reported as “greater than 50%”. The “repression of 5′ truncated MAFbx reporters” value ([6]; C2C12.AR cells, 500 nM, three 5′ truncations including pMAF400) was “apparent”, the “dexamethasone induced luciferase expression (pMAF3.1)” value ([6]; C2C12.AR cells, testosterone 5 nM) was “partially inhibited” and the “dexamethasone induced luciferase expression (pMAF3.1)” value ([6]; C2C12.AR cells, testosterone 50 nM) was “full suppression”. For the same compound, the “dexamethasone induced luciferase expression (pMAF3.1)” value ([6]; C2C12.AR cells, testosterone 500 nM) was “suppressed below that of untreated cells”, the “suppression of reporter under control of 3.1 of the MAFbx upstream promoter” value ([6]; C2C12 muscle cells, 500 nM) was 40% and the “expression of MAFbx reporter (general statement)” value ([6]; cells transduced with the MAFbx reporter construct) was “decreased”. The “effect on activity of pMAF3.1 reporter” value ([6]; wild-type C2C12 cells, 5 to 500 nM) was “no effect”, the “repression of pMAF3.1 reporter” value ([6]; wild-type C2C12 co-transfected with AR defective in nuclear entry (4RKM), 500 nM) was “No repression” and the “repression of pMAF3.1 reporter” value ([6]; wild-type C2C12 co-transfected with AR lacking ligand binding domain (ABC), 500 nM) was “absent”. The “repression of pMAF3.1 reporter” value ([6]; wild-type C2C12 co-transfected with DNA binding domain mutant AR (C562G), 500 nM) was “repression was observed”, the “pMAF3.1 reporter gene activity” value ([6]; wild-type C2C12 co-transfected with wild-type AR, 500 nM) was “significantly depressed” and the “luciferase expression by ARE-Luc reporter” value ([7]; C2C12.AR cells (human AR)) was “marked increase”. For the same compound, the “increase in luciferase expression over baseline” value ([7]; wild-type C2C12 cells, MMTV hormone response element reporter) was “about 2 fold”.
